Measured values from the supplement of paper PMC11962398.

Assays:
BI-2493 [1] = compound: T1, C[C@H]1CNCCN1c1nccc(-c2noc3c2CCC[C@@]32CCCc3sc(N)c(C#N)c32)n1 [BI-2493]; conditions: 5 days
Method: (§1)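 PRISM pooled barcoded cancer cell line viability screen (Broad Institute) with BI-2493 at 8 doses in threefold dilutions from 0.00457 to 10 µmol/L, 5-day treatment; curves fitted per cell line. IC50 is undefined (placeholder) for resistant lines. AUC is capped at 1, and sensitivity is reported as 1 − AUC.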

BI-2493 [2] = compound: T1, BI-2493; assay: 1 - AUC of viability dose-response curve (sensitivity) (fraction); higher = more sensitive; conditions: 5 days
Method: as §1

Test System | IC50 of cell viability (BI-2493 [1]) [µM] | 1 - AUC of viability dose-response curve (BI-2493 [2])
BXPC3_PANCREAS | > 10 | 0.0507
C4I_CERVIX | 3.49 | 0.154
C32_SKIN | 9.25 | 0.0594
C33A_CERVIX | 3.53 | 0.131
C75_LARGE_INTESTINE | 9.28 | 0.22
C80_LARGE_INTESTINE | 0.477 | 0.3
C8166_HAEMATOPOIETIC_AND_LYMPHOID_TISSUE | 9.65 | 0.00732
CADOES1_BONE | 9.64 | 0.00999
CAKI1_KIDNEY | 9.29 | 0.0185
CAL12T_LUNG | 4.93 | 0.201
CAL27_UPPER_AERODIGESTIVE_TRACT | 3.79 | 0.241
CAL29_URINARY_TRACT | 2.5 | 0.264
CAL33_UPPER_AERODIGESTIVE_TRACT | 6.54 | 0.142
CAL51_BREAST | 9.13 | 0.0624
CAL54_KIDNEY | > 10 | 0.00233
CAL62_THYROID | > 10 | 0.0045
CAL72_BONE | > 10 | 0.176
CAL78_BONE | 7.37 | 0.0497
CAL120_BREAST | > 10 | 0.0763
CAL148_BREAST | > 10 | < 0
CALU1_LUNG | 5.25 | 0.0917
CALU6_LUNG | 9.77 | 0.00583
CAMA1_BREAST | > 10 | 0.00667
CAOV3_OVARY | > 10 | 0.0615
CAPAN2_PANCREAS | 1.2 | 0.303

Test System | IC50 of cell viability (BI-2493 [1]) [µM] | 1 - AUC of viability dose-response curve (BI-2493 [2])
CAS1_CENTRAL_NERVOUS_SYSTEM | 9.1 | 0.0158
CASKI_CERVIX | 8.68 | 0.0572
CCFSTTG1_CENTRAL_NERVOUS_SYSTEM | > 10 | 0.00118
CCK81_LARGE_INTESTINE | 6.18 | 0.0958
CCLP1_BILIARY_TRACT | 7.32 | 0.0617
CCSW1_BILIARY_TRACT | 5.45 | 0.14
CFPAC1_PANCREAS | 4.12 | 0.15
CH157MN_CENTRAL_NERVOUS_SYSTEM | 8.61 | 0.0235
CHAGOK1_LUNG | 4.47 | 0.173
CHL1_SKIN | 4.96 | 0.14
CHLA06ATRT_SOFT_TISSUE | 7.12 | 0.141
CHLA15_AUTONOMIC_GANGLIA | 5.41 | 0.187
CHLA57_BONE | 3.06 | 0.211
CHLA200_CENTRAL_NERVOUS_SYSTEM | 9.58 | 0.0104
CHP212_AUTONOMIC_GANGLIA | 9.9 | 0.00818
CJM_SKIN | 5.39 | 0.11
CL11_LARGE_INTESTINE | 5.92 | 0.117
CL34_LARGE_INTESTINE | > 10 | 0.00172
CMLT1_HAEMATOPOIETIC_AND_LYMPHOID_TISSUE | 4.55 | 0.129
COGN278_AUTONOMIC_GANGLIA | 7.86 | 0.0701
COLO320_LARGE_INTESTINE | 7.35 | 0.057
COLO668_LUNG | 5.95 | 0.103
COLO679_SKIN | 4.47 | 0.146
COLO680N_OESOPHAGUS | 8.49 | 0.0719
COLO741_SKIN | 9.66 | 0.00696

Test System | IC50 of cell viability (BI-2493 [1]) [µM] | 1 - AUC of viability dose-response curve (BI-2493 [2])
COLO783_SKIN | 5.22 | 0.176
COLO792_SKIN | 7.62 | 0.221
COLO800_SKIN | 7.65 | 0.0454
CORL23_LUNG | 5.82 | 0.0991
CORL88_LUNG | 4.54 | 0.143
CORL105_LUNG | > 10 | 0.157
CORL279_LUNG | 7.86 | 0.134
COV318_OVARY | > 10 | 0.0643
COV362_OVARY | > 10 | 0.00606
COV434_OVARY | 3.6 | 0.191
COV644_OVARY | 7.18 | 0.157
CW2_LARGE_INTESTINE | 8.55 | 0.071
CW9019_SOFT_TISSUE | 3.99 | 0.111
DAOY_CENTRAL_NERVOUS_SYSTEM | 9.62 | 0.0237
DBTRG05MG_CENTRAL_NERVOUS_SYSTEM | 7.98 | 0.0396
DETROIT562_UPPER_AERODIGESTIVE_TRACT | 2.81 | 0.18
DKMG_CENTRAL_NERVOUS_SYSTEM | 4.05 | 0.112
DL_SOFT_TISSUE | 4.57 | 0.192
DMS53_LUNG | 6.38 | 0.114
DMS79_LUNG | > 10 | 0.0188
DMS273_LUNG | 2.81 | 0.265
DND41_HAEMATOPOIETIC_AND_LYMPHOID_TISSUE | 4.59 | 0.156
DOTC24510_CERVIX | 6.38 | 0.0765
DU145_PROSTATE | > 10 | 0.172
DU4475_BREAST | 2.96 | 0.151

Test System | IC50 of cell viability (BI-2493 [1]) [µM] | 1 - AUC of viability dose-response curve (BI-2493 [2])
DV90_LUNG | 0.856 | 0.308
EB1_HAEMATOPOIETIC_AND_LYMPHOID_TISSUE | 9.47 | 0.0219
EBC1_LUNG | 6.97 | 0.0696
ECC2_BILIARY_TRACT | > 10 | < 0
ECC10_STOMACH | 4.51 | 0.0829
ECGI10_OESOPHAGUS | 4.75 | 0.15
EFM19_BREAST | 8.2 | 0.0426
EFM192A_BREAST | > 10 | 0.0526
EFO21_OVARY | > 10 | 0.106
EFO27_OVARY | 9.28 | 0.167
EKVX_LUNG | 7.44 | 0.146
EM2_HAEMATOPOIETIC_AND_LYMPHOID_TISSUE | 4.85 | 0.207
EMTOKA_ENDOMETRIUM | 4.31 | 0.0999
EN_ENDOMETRIUM | 9.54 | 0.0294
EOL1_HAEMATOPOIETIC_AND_LYMPHOID_TISSUE | 0.77 | 0.355
ES2_OVARY | 9.51 | 0.00984
ESS1_ENDOMETRIUM | 1.43 | 0.362
EW8_BONE | 4.5 | 0.0935
EWS502_BONE | 3.56 | 0.177
FADU_UPPER_AERODIGESTIVE_TRACT | 6.09 | 0.102
FLO1_OESOPHAGUS | 4.86 | 0.0758
FTC133_THYROID | > 10 | 0.0578
G292CLONEA141B1_BONE | > 10 | 0.0653
